Patent EP3026118A1, “Enzymatic process for producing 3-butenal and 3-buten-1-ol” (LANXESS Deutschland GmbH, priority 2014, dated 2016)

Biological target: T1, Acetaldehyd-Dehydrogenase PS-DmpF (Pseudomonas sp., UniProt Q52060)
T1 construct: made in house; host or cells: E. coli BL21 (DE3), vector pET-21a(+)
T1 sequence (Q52060 1-312): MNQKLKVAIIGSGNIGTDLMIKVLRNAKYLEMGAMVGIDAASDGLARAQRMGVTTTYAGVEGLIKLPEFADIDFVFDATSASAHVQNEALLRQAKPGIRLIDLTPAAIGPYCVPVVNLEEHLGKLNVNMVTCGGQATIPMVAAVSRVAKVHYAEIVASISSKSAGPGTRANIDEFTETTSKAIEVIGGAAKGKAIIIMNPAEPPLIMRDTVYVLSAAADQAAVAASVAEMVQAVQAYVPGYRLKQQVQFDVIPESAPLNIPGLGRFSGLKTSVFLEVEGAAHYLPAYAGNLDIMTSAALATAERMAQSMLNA
Assay: photometric test of inhibition of PS-DmpF by Crotonyl-CoA in mixtures with Butyryl-CoA
Assay type: biochemical
Details: Butyryl-CoA and Crotonyl-CoA mixed in different ratios, Figur 4
Excerpt: Im Rahmen der Photometertests wurde festgestellt, dass die Acetaldehyd-Dehydrogenase DmpF aus Pseudomonas sp. keine Aktivität gegenüber Crotonyl-CoA zeigte. Daher wurde untersucht, ob Crotonyl-CoA kein Substrat für dieses Enzym darstellt oder eine inhibitorische Wirkung auf das Enzym aufweist. Dazu wurden Butyryl-CoA, welches von der Acetaldehyd-Dehydrogenase umgesetzt wird, und Crotonyl-CoA in unterschiedlichen Verhältnissen gemischt und die Aktivität der PS-DmpF gegen diese Substratmischungen untersucht (Figur 4). Die in Figur 4 zusammengefassten Ergebnisse zeigen, dass die Aktivität der PS-DmpF abnahm, je mehr Crotonyl-CoA im Ansatz enthalten ist. Dies bedeutet, dass Crotonyl-CoA inhibierend auf die Acetaldehyd-Dehydrogenase wirkt.

## C/C=C/C(=O)SCCNC(=O)CCNC(=O)[C@H](O)C(C)(C)COP(=O)(O)OP(=O)(O)OC[C@H]1O[C@@H](n2cnc3c(N)ncnc32)[C@H](O)[C@@H]1OP(=O)(O)O [Crotonyl-CoA]
  inhibitorische Wirkung auf das Enzym: inhibierend
